Test results: publication PMC10000267, “ALA‐A2 Is a Novel Anticancer Peptide Inspired by Alpha‐Lactalbumin: A Discovery from a Computational Peptide Library, In Silico Anticancer Peptide Screening and In Vitro Experimental Validation” (Global Challenges, 2023)
Residues, ends and D or L forms follow the SMILES beside them.

System: A549 lung adenocarcinoma cells
Conditions: A549, 200 µM, 24 h; SWATH; n = 9 per group
Method: In brief, A549 lung adenocarcinoma cells were seeded at a density of 1 × 10^5 cells/well in a 24‐well plate. After overnight incubation, the media were changed with fresh media with or without 200 µM ALA‐A2 and incubated at 37 °C in 5%CO2 for 24 h. The cells were washed twice with PBS before lysis with Laemmli lysis buffer (62.5 mM Tris‐HCl, pH 6.8, 10% v/v glycerol, 2% w/v SDS, and 2.5% v/v beta‐mercaptoethanol). Total protein was quantified using the Bradford protein assay (Bio‐Rad, Hercules, USA). 10 µg of protein was resolved by 12% SDS–PAGE before staining with Coomassie brilliant blue G‐250, and the gel was cut into small pieces for in‐gel tryptic digestion. An amount of peptide sample corresponding to 2.5 µg of total protein was resolved in an Eksigent nanoLC ultra nanoflow high performance liquid chromatography in tandem with a TripleTOF 6600+ mass spectrometer (ABSciex, Toronto, Canada) set for information‐dependent acquisition (IDA) and DIA modes. The peptides were loaded onto a C18 column trap (Nano Trap RP‐1, 3 µm 120 Å, 10 mm × 0.075 mm; Phenomenex, CA, USA) at a flow rate of 3 µL min^−1 of 0.1% formic acid in water for 10 min to desalt and concentrate the sample, which was then resolved by HPLC using a stationary phase of a C18 analytical column (bioZen Peptide Polar C18 nanocolumn, 75 µm × 15 cm, particle size 3 µm, 120 Å; Phenomenex) with mobile phase gradients at a flow rate of 300 nL min^−1 of 3–30% acetonitrile/0.1% formic acid for 60 min, 30–40% acetonitrile/0.1% formic acid for 10 min, 40–80% acetonitrile/0.1% formic acid for 2 min, 80% acetonitrile/0.1% formic acid for 6 min, 80–3% acetonitrile/0.1% formic acid for 2 min, and 3% acetonitrile/0.1% formic acid for 25 min. The eluate was ionized and sprayed into the mass spectrometer using OptiFlow Turbo V Source (Sciex). Ion source gas 1, ion source gas 2, and curtain gas were set at 19, 0, and 25 vendor arbitrary units, respectively. The interface heater temperature was 150 °C and ion spray voltage was 3.3 kV.
Each cycle performed one time of flight (TOF) scan (250 ms accumulation time, 350–1250 m/z window with a charge state of +2) followed by IDA of the 100 most intense ions, while the minimum MS signal was set to 150 counts. The MS/MS scan was operated in high sensitivity mode with 50 ms accumulation time and 50 ppm mass tolerance. Former MS/MS candidate ions were excluded for a period of 12 s after their first occurrence to reduce the redundancy of identified peptides. DIA mode was performed in a range of 350–1500 m/z using a predefined mass window of 7‐m/z with an overlap of 1‐m/z for 157 transmissible windows. MS scan was set at 2044 cycles, where each cycle performed one TOF‐MS scan type (50 ms accumulation time across 100–1500 precursor mass range) acquired in every cycle for a total cycle time of 3.08 s. MS spectra of 100–1500 m/z were collected with an accumulation time of 96 ms per SWATH window width. Resolution for MS1 was 35 000 and SWATH‐MS2 scan was 30 000. Rolling collision energy mode with collision energy spread of 15 eV was applied. The IDA and DIA data (.wiff) were recorded by Analyst‐TF v.1.8 software (ABSciex).
A total of 18 wiff files of IDA experiments (two groups; three biological replicates per group; three technical replicates per biological sample) were combined and searched using Protein Pilot v.5.0.2.0 software (ABSciex) against the Swiss‐Prot database (UniProtKB 2022_01) Homo sapiens (20385 proteins in database) with the searching parameters as follows; alkylation on cysteine by iodoacetamide, trypsin enzymatic digestion, one missed cleavage allowed, monoisotopic mass, and 1% false discovery rate.

CC(C)C[C@H](NC(=O)[C@@H](N)CCCCN)C(=O)N[C@@H](Cc1c[nH]c2ccccc12)C(=O)N[C@@H](CS)C(=O)N[C@@H](CCCCN)C(=O)N[C@@H](CO)C(=O)N[C@@H](CO)C(=O)N[C@@H](CCC(N)=O)C(=O)N[C@H](C(=O)N1CCC[C@H]1C(=O)N[C@@H](CCC(N)=O)C(=O)N[C@@H](CO)C(=O)N[C@@H](CCCNC(=N)N)C(=O)O)C(C)C [ALA‐A2] (H-KLWCKSSQVPQSR-OH)
Fold‐change [treated/ untreated]: 40S ribosomal protein SA (RSSA, P08865): 0.25
Fold‐change [treated/ untreated]: 60S ribosomal protein L6 (RL6, Q02878): 2.87
Fold‐change [treated/ untreated]: Actin, cytoplasmic 2 (ACTG, P63261): 0.09
Fold‐change [treated/ untreated]: Aldo‐keto reductase family 1 member B10 (AK1BA, O60218): 0.29
Fold‐change [treated/ untreated]: Annexin A4 (ANXA4, P09525): 2.98
Fold‐change [treated/ untreated]: Annexin A7 (ANXA7, P20073): 3.29
Fold‐change [treated/ untreated]: Chloride intracellular channel protein 1 (CLIC1, O00299): 3.02
Fold‐change [treated/ untreated]: Elongation factor 1‐alpha‐like 3 (EF1A3, Q5VTE0): 0.15
Fold‐change [treated/ untreated]: Elongation factor 1‐gamma (EF1G, P26641): 0.31
Fold‐change [treated/ untreated]: Endoplasmin (ENPL, P14625): 0.38
Fold‐change [treated/ untreated]: Glyceraldehyde‐3‐phosphate dehydrogenase (G3P, P04406): 0.32
Fold‐change [treated/ untreated]: Heat shock 70 kDa protein 8 (HSPA8, P11142): 0.25
Fold‐change [treated/ untreated]: Heat shock protein HSP90 alpha (HSP90AA1, P07900): 0.26
Fold‐change [treated/ untreated]: Heat shock protein HSP90 beta (HSP90AB1, P08238): 0.40
Fold‐change [treated/ untreated]: Heterogeneous nuclear ribonucleoprotein A/B (ROAA, Q99729): 2.35
Fold‐change [treated/ untreated]: Heterogeneous nuclear ribonucleoproteins A2/B1 (ROA2, P22626): 0.25
Fold‐change [treated/ untreated]: Histone H1.3 (H13, P16402): 0.32
Fold‐change [treated/ untreated]: Histone H2A type 2‐A (H2A2A, Q6FI13): 0.48
Fold‐change [treated/ untreated]: Histone H4 (H4, P62805): 0.26
Fold‐change [treated/ untreated]: Hsp70‐binding protein 1 (HPBP1, Q9NZL4): 0.48
Fold‐change [treated/ untreated]: Importin‐5 (IPO5, O00410): 2.22
Fold‐change [treated/ untreated]: Junction plakoglobin (PLAK, P14923): 2.05
Fold‐change [treated/ untreated]: Keratin, type I cytoskeletal 18 (K1C18, P05783): 0.35
Fold‐change [treated/ untreated]: Keratin, type I cytoskeletal 19 (K1C19, P08727): 0.34
Fold‐change [treated/ untreated]: Leucine‐rich PPR motif‐containing protein (LPPRC, P42704): 2.06
Fold‐change [treated/ untreated]: Neurofibromin (NF1, P21359): 0.07
Fold‐change [treated/ untreated]: Peroxiredoxin‐1 (PRDX1, Q06830): 0.26
Fold‐change [treated/ untreated]: Pyruvate kinase PKM (KPYM, P14618): 0.43
Fold‐change [treated/ untreated]: RNA‐binding protein Raly (RALY, Q9UKM9): 3.57
Fold‐change [treated/ untreated]: Serine/arginine‐rich splicing factor 3 (SRSF3, P84103): 0.33
Fold‐change [treated/ untreated]: TAR DNA‐binding protein 43 (TADBP, Q13148): 4.07
Fold‐change [treated/ untreated]: Threonine‐tRNA ligase 1 (SYTC, P26639): 2.61
Fold‐change [treated/ untreated]: Transaldolase (TALDO, P37837): 0.43
Fold‐change [treated/ untreated]: Transketolase (TKT, P29401): 0.35
Fold‐change [treated/ untreated]: Tubulin beta chain (TBB5, P07437): 0.27
Fold‐change [treated/ untreated]: T‐complex protein 1 subunit delta (TCPD, P50991): 2.39
Fold‐change [treated/ untreated]: T‐complex protein 1 subunit gamma (TCPG, P49368): 0.46
Fold‐change [treated/ untreated]: Ubiquitin‐60S ribosomal protein L40 (UBA52, P62987): 0.41
